For this assay, the target named is T1, PAR4 (Homo sapiens, UniProt Q96RI0).
T1 construct: expressed in transfected cells; host or cells: HEK293 PAR4 Clone 1.2A (BMS Arctic ID 383940)
T1 sequence (Q96RI0 18-385): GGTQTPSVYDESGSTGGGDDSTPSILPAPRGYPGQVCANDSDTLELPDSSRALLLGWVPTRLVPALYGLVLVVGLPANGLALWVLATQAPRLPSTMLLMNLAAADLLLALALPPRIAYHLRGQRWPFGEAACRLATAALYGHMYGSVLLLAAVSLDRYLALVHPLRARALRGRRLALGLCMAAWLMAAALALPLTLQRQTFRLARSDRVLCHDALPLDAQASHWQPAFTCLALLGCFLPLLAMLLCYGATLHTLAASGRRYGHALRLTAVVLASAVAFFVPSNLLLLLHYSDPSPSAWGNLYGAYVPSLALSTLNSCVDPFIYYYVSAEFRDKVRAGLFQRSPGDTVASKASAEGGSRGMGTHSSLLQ
The assay can be described thus: PAR4 FLIPR assay: calcium mobilization in PAR4-expressing HEK293 cells. In kind it is cell-based. An excerpt:
The FLIPR assay is an exemplary in vitro assay for measuring the activity of the PAR4 antagonists of the present invention. In this assay, intracellular calcium mobilization is induced in PAR4 expressing cells by a PAR4 agonist and calcium mobilization is monitored.
HEK293 cells stably expressing PAR4 were generated by a standard method of transfection of human PAR4 (F2R23) cDNA expression vector and selected based on PAR4 protein expression or mRNA expression. […] Therefore, the same cells were also used to determine selectivity against PAR1 and agonist activity for both receptors.
FLIPR-based calcium mobilization assay in HEK293 cells was used to measure PAR4 antagonism, agonism, and selectivity against PAR1. […] Counter screens for agonist activity and PAR1 antagonist activity were also performed. […] Cells were plated overnight prior to the experiment in a black 384-well Purecoat Amine clear bottom plate (Becton Dickinson Biosciences, San Jose, Calif.) at 10,000 cells/well in 30 μL growth medium and incubated in a humidified chamber at 37° C. with 5% CO2 overnight. Prior to compound addition, the cell medium was replaced with 40 μL of 1× calcium and magnesium-containing Hank's Balanced Saline Solution (HBSS) (with 20 mM HEPES) and 1:1000 diluted fluorescent calcium indicator (Codex Biosolutions, Gaithersburg, Md.). After a 30 minute incubation period at 37° C., and a further 30 minute incubation and equilibration period at room temperature, 20 μL test compound (diluted in 1×HBSS buffer) was added at various concentrations at 0.17% dimethyl sulfoxide (DMSO) final concentration. Changes in fluorescence intensity were measured using a Functional Drug Screening System (FDSS, Hamamatsu, Japan) to determine agonist activities. The cells were then incubated for 30 minutes at room temperature followed by addition of 20 μL of agonist peptide for antagonist activity measurement. […] Compound potency was derived from 11-point concentration-response curves.
Usually IC50 stands for the concentration needed to halve the response being measured. As to `COc1cnc2c(-c3cc(-c4ccccc4)no3)cc(C)cc2n1` [Example 1, 5-(2-methoxy-7-methylquinoxalin-5-yl)-3-phenylisoxazole], the IC50 worked out at 80 nM. To `Cc1cc(-c2cnn(-c3ccccc3)c2)c2ncc(OC(F)F)nc2c1` [Example 2, 2-(difluoromethoxy)-7-methyl-5-(1-phenyl-1H-pyrazol-4-yl)quinoxaline] belongs 790 nM; to `Cc1cc(-c2cnc(-c3ccccc3)s2)c2ncc(OC(F)F)nc2c1` [Example 3, 5-(2-(difluoromethoxy)-7-methylquinoxalin-5-yl)-2-phenylthiazole], 330 nM.

On to `Cc1cc(-c2ncc(C)s2)c2ncc(OC(F)F)nc2c1` [Example 4, 2-(2-(difluoromethoxy)-7-methylquinoxalin-5-yl)-5-methylthiazole], for which the half-inhibitory concentration (IC50) came out at 520 nM. With `Cc1cc(-c2ccsn2)c2ncc(OC(F)F)nc2c1` [Example 5, 3-(2-(difluoromethoxy)-7-methylquinoxalin-5-yl)isothiazole], the IC50 was determined as 940 nM. To `Cc1cc(-c2nc(C)c(-c3cccc(O)c3)s2)c2ncc(OC(F)F)nc2c1` [Example 6, 3-(2-(2-(difluoromethoxy)-7-methylquinoxalin-5-yl)-4-methylthiazol-5-yl)phenol] belongs 1 nM; to `Cc1cc(-c2ncc(Cc3ccccc3)s2)c2ncc(OC(F)F)nc2c1` [Example 7, 5-benzyl-2-(2-(difluoromethoxy)-7-methylquinoxalin-5-yl)thiazole], 95 nM; to `C=Cc1csc(-c2cc(C)cc3nc(OC(F)F)cnc23)n1` [Example 8, 2-(2-(difluoromethoxy)-7-methylquinoxalin-5 yl)-4-vinylthiazole], 100 nM. To `Cc1cc(-c2nc(C)c(-c3ccn[nH]3)s2)c2ncc(OC(F)F)nc2c1` [Example 9, 2-(2-(difluoromethoxy)-7-methylquinoxalin-5-yl)-4-methyl-5-(1H-pyrazol-5-yl)thiazole] belongs 5 nM. On to `Cc1cc(-c2nc(C3CC3)cs2)c2ncc(OC(F)F)nc2c1` [Example 10, 4-cyclopropyl-2-(2-(difluoromethoxy)-7-methylquinoxalin-5-yl)thiazole], for which the IC50 is 300 nM. Regarding `Cc1cc(-c2nc(C)c(-c3cc(F)ccc3O)s2)c2ncc(OC(F)F)nc2c1` [Example 11, 2-(2-(2-(difluoromethoxy)-7-methylquinoxalin-5-yl)-4-methylthiazol-5-yl)-4-fluoropheno], the concentration for half-maximal inhibition (IC50) stood at 7.5 nM. To `Cc1cc(-c2nc(C)c(-c3c(O)cccc3F)s2)c2ncc(OC(F)F)nc2c1` [Example 12, 2-(2-(2-(difluoromethoxy)-7-methylquinoxalin-5-yl)-4-methylthiazol-5-yl)-3-fluoropheno] belongs 8.1 nM; to `Cc1cc(-c2ncc(N3CCCCC3)s2)c2ncc(OC(F)F)nc2c1` [Example 13, 2-(2-(difluoromethoxy)-7-methylquinoxalin-5-yl)-5-(piperidin-1-yl)thiazole], 12 nM; to `Cc1cc(-c2ncc(-c3cncc(O)c3)s2)c2ncc(OC(F)F)nc2c1` [Example 14, 5-(2-(2-(difluoromethoxy)-7-methylquinoxalin-5-yl)thiazol-5-yl)pyridin-3-ol], 170 nM.

Regarding `Cc1cc(-c2nc(C)c(-c3ccccc3O)s2)c2ncc(OC(F)F)nc2c1` [Example 15, 2-(2-(2-(difluoromethoxy)-7-methylquinoxalin-5-yl)-4-methylthiazol-5-yl)phenol], the concentration for half-maximal inhibition (IC50) stood at 5.9 nM. To `Cc1cc(-c2ncc(-c3ccccc3C(F)(F)F)s2)c2ncc(OC(F)F)nc2c1` [Example 16, 2-(2-(difluoromethoxy)-7-methylquinoxalin-5-yl)-5-(2-(trifluoromethyl)phenyl)thiazole] belongs 110 nM; to `Cc1cc(-c2ncc(C3CCCCC3)s2)c2ncc(OC(F)F)nc2c1` [Example 17, 5-cyclohexyl-2-(2-(difluoromethoxy)-7-methylquinoxalin-5-yl)thiazole], 75 nM. Take `COCc1cnc2c(-c3ncc(-c4ccccc4)s3)cc(C)cc2n1` [Example 18, 2-(2-(methoxymethyl)-7-methylquinoxalin-5-yl)-5-phenylthiazole]: the IC50 was 6.2 nM. In the case of `Cc1cc(-c2ncc(-c3cccc(F)c3O)s2)c2ncc(OC(F)F)nc2c1` [Example 19, 2-(2-(2-(difluoromethoxy)-7-methylquinoxalin-5-yl)thiazol-5-yl)-6-fluorophenol] it was 5.9 nM; in that of `Cc1ccc(O)c(-c2cnc(-c3cc(C)cc4nc(OC(F)F)cnc34)s2)c1` [Example 20, 2-(2-(2-(difluoromethoxy)-7-methylquinoxalin-5-yl)thiazol-5-yl)-4-methylphenol], 31 nM; in that of `Cc1cc(-c2ncc(-c3cc(F)ccc3O)s2)c2ncc(OC(F)F)nc2c1` [Example 21, 2-(2-(2-(difluoromethoxy)-7-methylquinoxalin-5-yl)thiazol-5-yl)-4-fluorophenol], 8.8 nM. For `Cc1cc(-c2ncc(-c3cc(Cl)ccc3O)s2)c2ncc(OC(F)F)nc2c1` [Example 22, 2-(2-(2-(difluoromethoxy)-7-methylquinoxalin-5-yl)thiazol-5-yl)-4-chlorophenol], the IC50 stood at 18 nM. To `Cc1cc(-c2ncc(-c3cccc(Cl)c3O)s2)c2ncc(OC(F)F)nc2c1` [Example 23, 2-(2-(2-(difluoromethoxy)-7-methylquinoxalin-5-yl)thiazol-5-yl)-6-chlorophenol] belongs 14 nM; to `Cc1cc(-c2ncc(-c3c(O)cccc3F)s2)c2ncc(OC(F)F)nc2c1` [Example 24, 2-(2-(2-(difluoromethoxy)-7-methylquinoxalin-5-yl)thiazol-5-yl)-3-fluorophenol], 8.3 nM. To `Cc1cc(-c2ncc(-c3cc(O)ccc3F)s2)c2ncc(OC(F)F)nc2c1` [Example 25, 3-(2-(2-(difluoromethoxy)-7-methylquinoxalin-5-yl)thiazol-5-yl)-4-fluorophenol] belongs 15 nM; to `Cc1cc(-c2ncc(-c3cc(O)cc(F)c3)s2)c2ncc(OC(F)F)nc2c1` [Example 26, 3-(2-(2-(difluoromethoxy)-7-methylquinoxalin-5-yl)thiazol-5-yl)-5-fluorophenol], 23 nM. To `Cc1cc(-c2ncc(-c3cc(O)ccc3OC(F)(F)F)s2)c2ncc(OC(F)F)nc2c1` [Example 27] belongs 20 nM; to `Cc1cc(-c2ncc(-c3ccccc3)s2)c2ncc(OC(F)F)nc2c1` [Example 28, 2-(2-(difluoromethoxy)-7-methylquinoxalin-5-yl)-5-phenyl thiazole], 43 nM.

Regarding `Cc1cc(-c2ncc(-c3cccnc3)s2)c2ncc(OC(F)F)nc2c1` [Example 29, 2-(2-(difluoromethoxy)-7-methylquinoxalin-5-yl)-5-(pyridin-3-yl)thiazole], the 50% inhibitory concentration (IC50) amounted to 60 nM. In the case of `Cc1cc(-c2ncc(-c3ccccc3O)s2)c2ncc(OC(F)F)nc2c1` [Example 30, 2-(2-(2-(difluoromethoxy)-7-methylquinoxalin-5-yl)thiazol-5-yl)phenol] it was 8.8 nM; in that of `CCNC(=O)c1cnc(-c2cc(C)cc3nc(OC)cnc23)s1` [Example 31, N-ethyl-2-(2-methoxy-7-methylquinoxalin-5-yl)thiazole-5-carboxamide], 450 nM.

The values above are taken from US10815224B2, “Monocyclic heteroaryl substituted compounds” (Bristol-Myers Squibb Company, priority 2016, dated 2020).
